Values joined by “and” are separate entries in the source; they are usually repeats but may differ in a detail not shown here. Equal entries are not always repeated. ± gives the expanded uncertainty stated by the source.
Assay: activity coefficient (dimensionless); of the first substance listed, at infinite dilution; xn = mol fraction of the nth substance listed
Details: 100 kPa, Liquid, inert gas stripping, x1 = 0

activity coefficient (278.15 K)	activity coefficient (288.15 K)	activity coefficient (298.15 K)	activity coefficient (308.15 K)	activity coefficient (318.15 K)	activity coefficient (328.15 K)	activity coefficient (319.15 K)	activity coefficient (273.17 K)	activity coefficient (333.15 K)	activity coefficient (273.35 K)	activity coefficient (283.15 K)	activity coefficient (293.15 K)	activity coefficient (303.15 K)	activity coefficient (313.15 K)	activity coefficient (323.15 K)	Compound
260 ± 34	340 ± 44	418 ± 43	458 ± 42	–	524 ± 48	515 ± 47	–	–	–	–	–	–	–	–	CCCC(=O)CC [3-hexanone] + O
64.4 ± 8.2	72.9 ± 7.2	91 ± 8.1	102 ± 9.1	112 ± 9.8	119 ± 10	–	–	–	–	–	–	–	–	–	CC(=O)C(C)C [3-methyl-2-butanone] + O
216 ± 47	268 ± 58	296 ± 48	332 ± 43	358 ± 46	380 ± 49	–	–	–	–	–	–	–	–	–	CCC(C)C(C)=O (stereo unspecified) [3-methyl-2-pentanone] + O
67.2 ± 6.7	78.7 ± 7	95.9 ± 8.6	107 ± 9.4	121 ± 11	129 ± 11	–	61.4 ± 6.1	130 ± 11	–	–	–	–	–	–	CCCC(C)=O [pentan-2-one] + O
–	92.8 ± 8.3	114 and 112	129 ± 12	137 and 133	–	–	–	148 ± 13	67.9 ± 8.7	86.9 ± 8.7	101 ± 9	118 ± 11	130 ± 12	142 ± 13	CCC(=O)CC [pentan-3-one] + O

More lines, now with the values behind:

Compound	activity coefficient (278.15 K)	activity coefficient (288.15 K)	activity coefficient (298.15 K)	activity coefficient (308.15 K)	activity coefficient (318.15 K)	activity coefficient (328.15 K)	activity coefficient (319.15 K)	activity coefficient (273.17 K)	activity coefficient (333.15 K)	activity coefficient (273.35 K)	activity coefficient (283.15 K)	activity coefficient (293.15 K)	activity coefficient (303.15 K)	activity coefficient (313.15 K)	activity coefficient (323.15 K)
CCCCC(C)=O [2-hexanone] + O	257 ± 33	331 ± 34	384 ± 35	422 ± 39	471 ± 61	456 ± 42	–	–	–	–	–	–	–	–	–
CCC(=O)C(C)C [2-methyl-3-pentanone] + O	269 ± 58	329 ± 71	391 ± 51	442 ± 58	467 ± 61	491 ± 64	–	–	–	–	–	–	–	–	–
CC(=O)C(C)(C)C [3,3-dimethyl-2-butanone] + O	217 ± 20	272 ± 25	321 ± 29	345 ± 32	370 ± 34	379 ± 35	–	–	–	–	–	–	–	–	–
CC(=O)CC(C)C [4-methylpentan-2-one] + O	239 ± 24	277 and 287	327 ± 30	370 ± 34	405 ± 37	410 ± 38	–	–	–	–	–	–	–	–	–
